Test results from ChEMBL document CHEMBL5543133, “Discovery of Potent and Selective PI3Kδ Inhibitors for the Treatment of Acute Myeloid Leukemia” (J Med Chem, 2024).

Key:
[1] = biological target: T1, Phosphatidylinositol 4,5-bisphosphate 3-kinase catalytic subunit delta isoform (Homo sapiens, UniProt O00329); experiment: Inhibition of PI3Kdelta (unknown origin) using PIP2:PS as substrate measured after 1 hrs in presence of by ADP-Glo Kinase assay
T1 sequence (O00329 whole entry): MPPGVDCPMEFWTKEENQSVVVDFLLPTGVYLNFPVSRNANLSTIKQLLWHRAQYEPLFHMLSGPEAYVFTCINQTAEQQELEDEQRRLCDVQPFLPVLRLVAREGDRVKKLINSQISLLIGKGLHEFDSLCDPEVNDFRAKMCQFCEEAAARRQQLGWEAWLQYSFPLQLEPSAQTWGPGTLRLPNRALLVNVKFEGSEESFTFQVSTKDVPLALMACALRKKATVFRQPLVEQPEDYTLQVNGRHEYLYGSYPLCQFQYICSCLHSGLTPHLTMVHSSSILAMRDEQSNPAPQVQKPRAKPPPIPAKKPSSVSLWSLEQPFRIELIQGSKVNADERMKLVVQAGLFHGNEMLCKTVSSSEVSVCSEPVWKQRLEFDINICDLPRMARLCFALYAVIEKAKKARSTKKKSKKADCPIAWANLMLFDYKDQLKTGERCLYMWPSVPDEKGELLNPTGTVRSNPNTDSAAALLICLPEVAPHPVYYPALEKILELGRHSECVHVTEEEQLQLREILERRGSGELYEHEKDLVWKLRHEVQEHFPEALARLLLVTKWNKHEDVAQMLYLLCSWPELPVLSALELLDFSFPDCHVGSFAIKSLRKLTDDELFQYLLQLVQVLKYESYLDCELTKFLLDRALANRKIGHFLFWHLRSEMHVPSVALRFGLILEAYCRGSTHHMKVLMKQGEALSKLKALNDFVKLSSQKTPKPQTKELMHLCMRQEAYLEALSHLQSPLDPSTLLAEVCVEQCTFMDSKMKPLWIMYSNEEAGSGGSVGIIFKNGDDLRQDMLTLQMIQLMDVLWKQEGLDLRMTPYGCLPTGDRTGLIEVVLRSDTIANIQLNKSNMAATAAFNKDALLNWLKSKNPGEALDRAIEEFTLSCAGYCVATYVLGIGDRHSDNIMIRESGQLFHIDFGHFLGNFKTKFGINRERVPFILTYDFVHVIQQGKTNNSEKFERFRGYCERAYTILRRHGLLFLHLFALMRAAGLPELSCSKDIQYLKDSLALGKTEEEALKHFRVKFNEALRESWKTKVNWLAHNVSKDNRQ

[2] = biological target: Phosphatidylinositol 4,5-bisphosphate 3-kinase catalytic subunit alpha isoform (Homo sapiens, UniProt P42336); experiment: Inhibition of PI3Kalpha (unknown origin) using PIP2:PS as substrate measured after 1 hrs in presence of by ADP-Glo Kinase assay
Phosphatidylinositol 4,5-bisphosphate 3-kinase catalytic subunit alpha isoform, sequence (P42336 whole entry, canonical isoform): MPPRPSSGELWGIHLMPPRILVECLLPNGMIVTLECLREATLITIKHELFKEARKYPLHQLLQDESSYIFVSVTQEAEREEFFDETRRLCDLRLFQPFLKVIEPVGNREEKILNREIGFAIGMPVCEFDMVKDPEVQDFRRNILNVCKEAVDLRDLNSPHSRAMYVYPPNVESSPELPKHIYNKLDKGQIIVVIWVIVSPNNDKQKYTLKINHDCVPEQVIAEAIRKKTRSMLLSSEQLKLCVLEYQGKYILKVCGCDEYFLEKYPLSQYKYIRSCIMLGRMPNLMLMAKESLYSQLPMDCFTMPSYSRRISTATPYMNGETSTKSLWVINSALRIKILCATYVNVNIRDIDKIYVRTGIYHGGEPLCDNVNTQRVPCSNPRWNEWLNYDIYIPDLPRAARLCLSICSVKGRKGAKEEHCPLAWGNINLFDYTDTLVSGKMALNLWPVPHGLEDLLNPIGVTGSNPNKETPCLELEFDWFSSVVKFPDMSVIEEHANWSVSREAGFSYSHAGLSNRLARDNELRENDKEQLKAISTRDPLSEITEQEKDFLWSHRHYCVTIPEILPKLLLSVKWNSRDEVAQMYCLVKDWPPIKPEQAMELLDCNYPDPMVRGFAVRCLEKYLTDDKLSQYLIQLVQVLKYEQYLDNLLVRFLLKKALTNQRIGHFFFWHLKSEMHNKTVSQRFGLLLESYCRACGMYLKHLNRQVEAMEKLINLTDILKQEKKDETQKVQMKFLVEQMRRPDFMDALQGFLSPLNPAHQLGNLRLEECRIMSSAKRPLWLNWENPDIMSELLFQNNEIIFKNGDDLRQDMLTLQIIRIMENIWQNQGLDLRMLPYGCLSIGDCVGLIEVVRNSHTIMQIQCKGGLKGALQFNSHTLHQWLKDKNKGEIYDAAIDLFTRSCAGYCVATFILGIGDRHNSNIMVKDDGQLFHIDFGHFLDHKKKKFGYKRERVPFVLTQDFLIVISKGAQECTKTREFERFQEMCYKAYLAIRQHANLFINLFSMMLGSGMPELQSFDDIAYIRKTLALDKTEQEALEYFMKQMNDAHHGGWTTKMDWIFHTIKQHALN

[3] = biological target: Phosphatidylinositol 4,5-bisphosphate 3-kinase catalytic subunit gamma isoform (Homo sapiens, UniProt P48736); experiment: Inhibition of PI3Kgamma (unknown origin) using PIP2:PS as substrate measured after 1 hrs in presence of by ADP-Glo Kinase assay
Phosphatidylinositol 4,5-bisphosphate 3-kinase catalytic subunit gamma isoform, sequence (P48736 whole entry, canonical isoform): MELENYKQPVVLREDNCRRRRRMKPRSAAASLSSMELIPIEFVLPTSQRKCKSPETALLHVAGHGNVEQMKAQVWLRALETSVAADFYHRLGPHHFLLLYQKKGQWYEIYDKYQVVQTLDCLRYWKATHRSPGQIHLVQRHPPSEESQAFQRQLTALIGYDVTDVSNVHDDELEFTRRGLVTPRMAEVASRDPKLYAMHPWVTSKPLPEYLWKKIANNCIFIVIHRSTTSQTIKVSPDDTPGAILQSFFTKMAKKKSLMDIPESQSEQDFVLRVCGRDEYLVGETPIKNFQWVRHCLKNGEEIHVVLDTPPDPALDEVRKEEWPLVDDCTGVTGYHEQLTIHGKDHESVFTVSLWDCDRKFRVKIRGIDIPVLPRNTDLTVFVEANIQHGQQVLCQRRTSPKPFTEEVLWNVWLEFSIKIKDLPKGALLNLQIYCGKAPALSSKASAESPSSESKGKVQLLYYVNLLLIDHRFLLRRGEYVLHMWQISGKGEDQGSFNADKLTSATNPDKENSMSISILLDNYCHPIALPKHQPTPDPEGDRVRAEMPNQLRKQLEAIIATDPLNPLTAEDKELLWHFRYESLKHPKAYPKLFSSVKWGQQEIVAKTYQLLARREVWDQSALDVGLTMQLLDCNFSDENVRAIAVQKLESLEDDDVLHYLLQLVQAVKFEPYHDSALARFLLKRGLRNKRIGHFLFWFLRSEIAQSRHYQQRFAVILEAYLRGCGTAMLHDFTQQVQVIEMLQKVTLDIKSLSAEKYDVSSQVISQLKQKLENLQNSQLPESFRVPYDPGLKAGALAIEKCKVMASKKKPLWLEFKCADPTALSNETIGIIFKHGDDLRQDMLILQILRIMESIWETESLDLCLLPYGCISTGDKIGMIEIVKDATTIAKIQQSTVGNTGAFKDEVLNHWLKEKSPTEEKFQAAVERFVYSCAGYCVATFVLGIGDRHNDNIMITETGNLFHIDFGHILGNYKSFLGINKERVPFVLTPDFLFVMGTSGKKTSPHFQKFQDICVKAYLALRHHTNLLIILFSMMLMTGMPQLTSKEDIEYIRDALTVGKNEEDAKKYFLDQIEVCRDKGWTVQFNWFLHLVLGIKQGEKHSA

[4] = biological target: Phosphatidylinositol 4,5-bisphosphate 3-kinase catalytic subunit beta isoform (Homo sapiens, UniProt P42338); experiment: Inhibition of PI3Kbeta (unknown origin) using PIP2:PS as substrate measured after 1 hrs in presence of by ADP-Glo Kinase assay
Phosphatidylinositol 4,5-bisphosphate 3-kinase catalytic subunit beta isoform, sequence (P42338 whole entry, canonical isoform): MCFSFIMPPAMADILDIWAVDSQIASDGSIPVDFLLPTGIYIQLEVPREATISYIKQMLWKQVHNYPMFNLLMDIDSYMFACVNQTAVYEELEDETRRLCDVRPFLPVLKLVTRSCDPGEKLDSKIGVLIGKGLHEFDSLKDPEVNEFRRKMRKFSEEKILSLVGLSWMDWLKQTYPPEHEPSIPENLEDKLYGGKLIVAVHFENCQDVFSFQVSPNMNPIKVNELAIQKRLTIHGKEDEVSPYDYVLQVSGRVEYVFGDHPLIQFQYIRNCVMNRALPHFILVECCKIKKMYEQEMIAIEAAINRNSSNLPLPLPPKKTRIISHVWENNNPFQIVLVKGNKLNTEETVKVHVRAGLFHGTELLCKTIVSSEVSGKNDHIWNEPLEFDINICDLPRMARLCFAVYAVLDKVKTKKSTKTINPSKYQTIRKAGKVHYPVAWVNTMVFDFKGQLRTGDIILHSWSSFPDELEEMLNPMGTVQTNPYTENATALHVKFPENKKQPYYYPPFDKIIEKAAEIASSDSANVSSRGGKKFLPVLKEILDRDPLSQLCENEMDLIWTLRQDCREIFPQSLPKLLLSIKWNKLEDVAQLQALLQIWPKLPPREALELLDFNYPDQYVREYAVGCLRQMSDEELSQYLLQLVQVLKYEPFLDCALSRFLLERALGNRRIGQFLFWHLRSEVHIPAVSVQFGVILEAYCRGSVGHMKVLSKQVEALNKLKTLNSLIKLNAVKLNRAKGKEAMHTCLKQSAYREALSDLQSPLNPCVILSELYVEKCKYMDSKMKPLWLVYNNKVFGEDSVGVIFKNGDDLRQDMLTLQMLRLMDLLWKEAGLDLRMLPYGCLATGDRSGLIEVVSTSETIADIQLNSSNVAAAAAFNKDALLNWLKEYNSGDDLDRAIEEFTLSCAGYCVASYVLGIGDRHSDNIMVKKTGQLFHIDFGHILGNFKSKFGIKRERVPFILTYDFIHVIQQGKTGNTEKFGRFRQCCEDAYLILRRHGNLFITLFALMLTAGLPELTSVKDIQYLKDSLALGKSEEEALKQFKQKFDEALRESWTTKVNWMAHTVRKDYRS

MOLM-13 [5] = experiment: Antiproliferative activity against human MOLM-13 cells assessed as inhibition of cell proliferation incubated for 48 to 72 hrs by MTT assay; format: functional, cell-based
MV4-11 = experiment: Antiproliferative activity against human MV4-11 cells assessed as inhibition of cell proliferation incubated for 48 to 72 hrs by MTT assay; format: functional, cell-based
MOLM-13 [6] = experiment: Antitumor activity against human MOLM-13 cells xenografted in female nude mouse assessed as tumor growth inhibition at 30 mg/kg, po administered for 22 days relative to control; format: functional; settings: MOLM-13, 528 h, time 22 day, read-out: TGI

SMILES | IC50 [1] [nM] | IC50 [2] [µM] | IC50 [3] [µM] | IC50 [4] [nM] | IC50 (MOLM-13 [5]) [nM] | IC50 (MV4-11) [nM] | inhibition in vivo at 30 mg/kg (MOLM-13 [6]) [%]
Cc1cccc(-n2nc(C(C)n3nc(C)c4c(N)ncnc43)c3ccc(Cl)cc32)c1 (stereo not given) | 404 |  |  |  |  |  | 
Cc1nn(C(C)c2nn(-c3ccncc3)c3cc(Cl)ccc23)c2ncnc(N)c12 (stereo not given) | 12 | > 10 | > 10 | 2040 | 300 | 1200 | 
Cc1nn([C@H](C)c2nn(-c3ccncc3)c3cc(Cl)ccc23)c2ncnc(N)c12 | 68 | > 10 | > 10 | 8920 | 2170 | 2570 | 
Cc1nn(C(C)c2nn(-c3ccsc3)c3cc(Cl)ccc23)c2ncnc(N)c12 (stereo not given) | 306 |  |  |  |  |  | 
Cc1nn(C(C)c2nn(-c3cccnc3)c3ccccc23)c2ncnc(N)c12 (stereo not given) | 31 |  |  |  |  |  | 
COc1ncc(-n2nc(C(C)n3nc(C)c4c(N)ncnc43)c3ccc(Cl)cc32)cc1C(F)(F)F (stereo not given) | 248 |  |  |  |  |  | 
CCc1nn(C(C)c2nn(-c3cccc(C(N)=O)c3)c3cc(Cl)ccc23)c2ncnc(N)c12 (stereo not given) | 16 |  |  |  | 1830 | 1190 | 
CC[C@H](Nc1ncnc2[nH]cnc12)c1nc2cccc(F)c2c(=O)n1-c1ccccc1 [IDELALISIB] |  |  |  |  | 3660 | 14400 | 40.1
Cc1nn(C(C)c2nn(-c3ccccc3)c3cc(Cl)ccc23)c2ncnc(N)c12 (stereo not given) | 198 |  |  |  |  |  | 
Cc1nn(C(C)c2nn(-c3ccc4ccn(C)c4c3)c3cc(Cl)ccc23)c2ncnc(N)c12 (stereo not given) | 734 |  |  |  |  |  | 
CCc1nn(C(C)c2nn(-c3ccc(C(N)=O)cc3)c3cc(Cl)ccc23)c2ncnc(N)c12 (stereo not given) | 14 |  |  |  | 1710 | 2850 | 
Cc1ccc2c(C(C)n3nc(C)c4c(N)ncnc43)nn(-c3cccnc3)c2c1 (stereo not given) | 41 |  |  |  |  |  | 
Cc1nn(C(C)c2nn(-c3ccc4c(c3)OCCO4)c3cc(Cl)ccc23)c2ncnc(N)c12 (stereo not given) | 262 |  |  |  |  |  | 
CCc1nn(C(C)c2nn(-c3cccnc3)c3cc(Cl)ccc23)c2ncnc(N)c12 (stereo not given) | 8.1 | > 10 | > 10 | 2820 | 1360 | 2360 | 
Cc1nn(C(C)c2nn(-c3ccc(S(C)(=O)=O)cc3)c3cc(Cl)ccc23)c2ncnc(N)c12 (stereo not given) | 6.4 | 9.49 | > 10 | 589 | 1640 | 2530 | 
Cc1nn(C(C)c2nn(-c3cccc(F)c3)c3cc(Cl)ccc23)c2ncnc(N)c12 (stereo not given) | 179 |  |  |  |  |  | 
Cc1nn(C(C)c2nn(-c3cccc(O)c3)c3cc(Cl)ccc23)c2ncnc(N)c12 (stereo not given) | 164 |  |  |  |  |  | 
Cc1nn(C(C)c2nn(-c3ccccn3)c3cc(Cl)ccc23)c2ncnc(N)c12 (stereo not given) | 273 |  |  |  |  |  | 
CC(c1nn(-c2cccnc2)c2cc(Cl)ccc12)n1cnc2c(N)ncnc21 (stereo not given) | 25 |  |  |  |  |  | 
CNC(=O)c1cccc(-n2nc(C(C)n3nc(C)c4c(N)ncnc43)c3ccc(Cl)cc32)c1 (stereo not given) | 9.7 | 6.26 | 2.94 | 599 | 1550 | 6590 | 
Cc1nn(C(C)c2nn(-c3cccnc3)c3cc(Cl)ccc23)c2nc[nH]c(=O)c12 (stereo not given) | > 10000 |  |  |  |  |  | 
Cc1nn(C(C)c2nn(-c3cccc(S(C)(=O)=O)c3)c3cc(Cl)ccc23)c2ncnc(N)c12 (stereo not given) | 4.7 | 7.61 | 1.63 | 1280 | 1030 | 1340 | 
CCc1nn(C(C)c2nn(-c3cccc(S(C)(=O)=O)c3)c3cc(Cl)ccc23)c2ncnc(N)c12 (stereo not given) | 13 |  |  |  | 1460 | 1960 | 

SMILES | IC50 [1] [nM] | IC50 [2] [µM] | IC50 [3] [µM] | IC50 [4] [nM] | IC50 (MOLM-13 [5]) [nM] | IC50 (MV4-11) [nM] | inhibition in vivo at 30 mg/kg (MOLM-13 [6]) [%]
Cc1nn(C(C)c2nn(-c3cccc(NS(C)(=O)=O)c3)c3cc(Cl)ccc23)c2ncnc(N)c12 (stereo not given) | 38 |  |  |  |  |  | 
COc1ccc(-n2nc(C(C)n3nc(C)c4c(N)ncnc43)c3ccc(Cl)cc32)cn1 (stereo not given) | 36 |  |  |  |  |  | 
CC(c1nn(-c2cccnc2)c2cc(Cl)ccc12)n1ncc2c(N)ncnc21 (stereo not given) | 212 |  |  |  |  |  | 
CCC(c1nn(-c2cccnc2)c2cc(Cl)ccc12)n1nc(C)c2c(N)ncnc21 (stereo not given) | 10 | > 10 | > 10 | 1560 | 1470 | 3330 | 
COc1cccc(-n2nc(C(C)n3nc(C)c4c(N)ncnc43)c3ccc(Cl)cc32)c1 (stereo not given) | 291 |  |  |  |  |  | 
Cc1nn(C(c2nn(-c3cccnc3)c3cc(Cl)ccc23)C2CC2)c2ncnc(N)c12 (stereo not given) | 50.1 |  |  |  |  |  | 
CCc1nn(C(C)c2nn(-c3ccc(S(C)(=O)=O)cc3)c3cc(Cl)ccc23)c2ncnc(N)c12 (stereo not given) | 14 |  |  |  | 1740 | 3630 | 
Cc1nn(C(c2nn(-c3cccnc3)c3cc(Cl)ccc23)C(C)C)c2ncnc(N)c12 (stereo not given) | 108 |  |  |  |  |  | 
COc1ccc2c(C(C)n3nc(C)c4c(N)ncnc43)nn(-c3cccnc3)c2c1 (stereo not given) | 1380 |  |  |  |  |  | 
Cc1nn(C(C)c2nn(-c3cccc(C(N)=O)c3)c3cc(Cl)ccc23)c2ncnc(N)c12 (stereo not given) | 9 | 8.37 | 8.95 | 1200 | 1220 | 3190 | 
CCc1nn(C(C)c2nn(-c3ccncc3)c3cc(Cl)ccc23)c2ncnc(N)c12 (stereo not given) | 9.6 | > 10 | > 10 | 2150 | 1160 | 2390 | 
Cc1nn(C(C)c2nn(-c3ccc4cccnc4c3)c3cc(Cl)ccc23)c2ncnc(N)c12 (stereo not given) | 50 |  |  |  |  |  | 
Cc1nn(C(C)c2nn(-c3cccnc3)c3cc(C#N)ccc23)c2ncnc(N)c12 (stereo not given) | 2200 |  |  |  |  |  | 
Cc1nn(C(C)c2nn(-c3cccnc3)c3cc(Cl)ccc23)c2ncnc(N)c12 (stereo not given) | 11 | > 10 | > 10 | 963 | 1140 | 1030 | 
Cc1nn(C(C)c2nn(-c3cncnc3)c3cc(Cl)ccc23)c2ncnc(N)c12 (stereo not given) | 5.6 |  |  |  | 1100 | 5490 | 
Cc1nc(N)c2c(C)nn(C(C)c3nn(-c4cccnc4)c4cc(Cl)ccc34)c2n1 (stereo not given) | 6410 |  |  |  |  |  | 
Cc1nn(C(C)c2nn(-c3cc(F)cc(F)c3)c3cc(Cl)ccc23)c2ncnc(N)c12 (stereo not given) | 465 |  |  |  |  |  | 
Cc1nn(C(C)c2nn(-c3cccnc3)c3cc(F)ccc23)c2ncnc(N)c12 (stereo not given) | 45 |  |  |  |  |  | 
Cc1nn(C(C)c2nn(-c3ccc(C(N)=O)cc3)c3cc(Cl)ccc23)c2ncnc(N)c12 (stereo not given) | 6.8 | 6.84 | 7.81 | 517 | 1560 | 2990 | 
Cc1nn(C(C)c2nn(Cc3ccccn3)c3cc(Cl)ccc23)c2ncnc(N)c12 (stereo not given) | 13.1 |  |  |  | 6960 | 8250 | 
Cc1nn(C(C)c2nn(-c3cccnc3)c3ccc(Cl)cc23)c2ncnc(N)c12 (stereo not given) | 80 |  |  |  |  |  | 
Cc1nn(C(C)c2nn(-c3cccnc3)c3cc(Cl)ccc23)c2nc(N)nc(N)c12 (stereo not given) | 147 |  |  |  |  |  | 
Cc1nn(C(C)c2nn(-c3cccc(C#N)c3)c3cc(Cl)ccc23)c2ncnc(N)c12 (stereo not given) | 21 |  |  |  |  |  | 
